{"source": "paper PMC7594953", "about": "(Acta Pharmacologica Sinica, 2020)", "key": {"SARS-CoV-2 (WIV04)": {"tested_on": "SARS-CoV-2 (WIV04)", "format": "cell-based"}, "SARS2-S pseudovirus [1]": {"tested_on": "SARS2-S pseudovirus", "assay": "microbe, parasite or virus in culture", "details": "Huh-7, 48 h; for EC90: read-out: SARS2-S pseudovirus EC90; for EC50: read-out: SARS2-S pseudovirus EC50"}, "SARS-CoV S pseudovirus": {"tested_on": "SARS-CoV S pseudovirus", "assay": "microbe, parasite or virus in culture", "format": "cell-based", "details": "Severe acute respiratory syndrome coronavirus; for EC90: Huh-7, read-out: SARS-CoV S pseudovirus EC90; for EC50: Huh-7, read-out: SARS-CoV S pseudovirus EC50"}, "VSV-G pseudovirus": {"tested_on": "VSV-G pseudovirus", "assay": "microbe, parasite or virus in culture", "format": "cell-based", "details": "Huh-7, read-out: VSV-G pseudovirus EC50"}, "SARS2-S pseudovirus [2]": {"tested_on": "SARS2-S pseudovirus", "assay": "in vitro", "details": "human"}, "in vitro": {"assay": "in vitro", "details": "human"}, "SARS2-S pseudovirus [3]": {"tested_on": "SARS2-S pseudovirus", "details": "Huh-7 cells, screening at 20 µM"}, "COVID-19": {"tested_on": "COVID-19", "details": "critically ill patients; cited from earlier work"}, "[4]": {"details": "Huh-7 CC50, Table 2, mean ± SEM from two independent experiments"}}, "note": "Entries after “also recorded” stand apart in the source; their conditions may differ."}
{"smiles": "CCCCc1oc2ccccc2c1C(=O)c1cc(I)c(OCCN(CC)CC)c(I)c1", "note": "[Amiodarone]", "values": [{"measurement": "Activity against native SARS-CoV-2 replication (in words)", "setting": "SARS-CoV-2 (WIV04)", "result": "significantly inhibited SARS2 replication"}, {"measurement": "EC90", "setting": "SARS2-S pseudovirus [1]", "result": 19.4, "unit": "µM"}, {"measurement": "EC90", "setting": "SARS-CoV S pseudovirus", "result": "> 20", "unit": "µM"}]}
{"smiles": "CN1CCCC(n2nc(Cc3ccc(Cl)cc3)c3ccccc3c2=O)CC1", "note": "(stereo not drawn) [Azelastine]", "values": [{"measurement": "Activity against native SARS-CoV-2 replication (in words)", "setting": "SARS-CoV-2 (WIV04)", "result": "significantly inhibited SARS2 replication"}, {"measurement": "EC50", "setting": "VSV-G pseudovirus", "result": "> 20", "unit": "µM"}, {"measurement": "selectivity ratio", "setting": "SARS2-S pseudovirus [2]", "result": "> 11.3"}, {"measurement": "EC50", "setting": "SARS2-S pseudovirus [1]", "result": 1.81, "unit": "µM"}, {"measurement": "EC90", "setting": "SARS2-S pseudovirus [1]", "result": 5.63, "unit": "µM"}, {"measurement": "CC50", "setting": "in vitro; [4]", "result": "> 20", "unit": "µM"}, {"measurement": "EC50", "setting": "SARS-CoV S pseudovirus", "result": "2.36 ± 1.57", "unit": "µM"}, {"measurement": "EC90", "setting": "SARS-CoV S pseudovirus", "result": "> 20", "unit": "µM"}]}
{"smiles": "COc1cc(Nc2c(C#N)cnc3cc(OCCCN4CCN(C)CC4)c(OC)cc23)c(Cl)cc1Cl", "note": "[Bosutinib]", "values": [{"measurement": "Activity against native SARS-CoV-2 replication (in words)", "setting": "SARS-CoV-2 (WIV04)", "result": "significantly inhibited SARS2 replication"}, {"measurement": "EC50", "setting": "VSV-G pseudovirus", "result": 5.07, "unit": "µM"}, {"measurement": "selectivity ratio", "setting": "SARS2-S pseudovirus [2]", "result": 13.6}, {"measurement": "EC50", "setting": "SARS2-S pseudovirus [1]", "result": 1.3, "unit": "µM"}, {"measurement": "EC90", "setting": "SARS2-S pseudovirus [1]", "result": 1.56, "unit": "µM"}, {"measurement": "CC50", "setting": "in vitro; [4]", "result": "13.6 ± 2.16", "unit": "µM"}, {"measurement": "EC50", "setting": "SARS-CoV S pseudovirus", "result": "1.04 ± 0.05", "unit": "µM"}, {"measurement": "EC90", "setting": "SARS-CoV S pseudovirus", "result": "3.15 ± 0.01", "unit": "µM"}]}
{"smiles": "CN(C)CC/C=C1/c2ccccc2Sc2ccc(Cl)cc21", "note": "[Chlorprothixene]", "values": [{"measurement": "Activity against native SARS-CoV-2 replication (in words)", "setting": "SARS-CoV-2 (WIV04)", "result": "failed to show activity; also recorded: no anti-SARS-CoV-2 activity"}, {"measurement": "EC50", "setting": "VSV-G pseudovirus", "result": "> 20", "unit": "µM"}, {"measurement": "selectivity ratio", "setting": "SARS2-S pseudovirus [2]", "result": "> 11.9"}, {"measurement": "EC50", "setting": "SARS2-S pseudovirus [1]", "result": 2.15, "unit": "µM"}, {"measurement": "EC90", "setting": "SARS2-S pseudovirus [1]", "result": 23.8, "unit": "µM"}]}
{"smiles": "CN(C)[C@@H](CCOc1cccc2ccccc12)c1ccccc1", "note": "[Dapoxetine]", "values": [{"measurement": "EC50", "setting": "VSV-G pseudovirus", "result": 18.9, "unit": "µM"}, {"measurement": "selectivity ratio", "setting": "SARS2-S pseudovirus [2]", "result": 13.1}, {"measurement": "EC50", "setting": "SARS2-S pseudovirus [1]", "result": 1.19, "unit": "µM"}, {"measurement": "EC90", "setting": "SARS2-S pseudovirus [1]", "result": 18, "unit": "µM"}]}
{"smiles": "OCCN1CCN(CCC=C2c3ccccc3Sc3ccc(C(F)(F)F)cc32)CC1", "note": "[Flupenthixol]", "values": [{"measurement": "Activity against native SARS-CoV-2 replication (in words)", "setting": "SARS-CoV-2 (WIV04)", "result": "significantly inhibited SARS2 replication"}, {"measurement": "EC50", "setting": "VSV-G pseudovirus", "result": 17.9, "unit": "µM"}, {"measurement": "selectivity ratio", "setting": "SARS2-S pseudovirus [2]", "result": 11.7}, {"measurement": "EC50", "setting": "SARS2-S pseudovirus [1]", "result": 1.45, "unit": "µM"}, {"measurement": "EC90", "setting": "SARS2-S pseudovirus [1]", "result": 8.68, "unit": "µM"}, {"measurement": "CC50", "setting": "in vitro; [4]", "result": "14.7 ± 3.28", "unit": "µM"}, {"measurement": "EC50", "setting": "SARS-CoV S pseudovirus", "result": "1.39 ± 0.35", "unit": "µM"}, {"measurement": "EC90", "setting": "SARS-CoV S pseudovirus", "result": "10.8 ± 1.05", "unit": "µM"}]}
{"smiles": "COc1cc2ncnc(Nc3ccc(F)c(Cl)c3)c2cc1OCCCN1CCOCC1", "note": "[Gefitinib]", "values": [{"measurement": "EC90", "setting": "SARS2-S pseudovirus [1]", "result": 20.3, "unit": "µM"}]}
{"smiles": "CNCCC=C1c2ccccc2CCc2ccccc21", "note": "[Nortriptyline]", "values": [{"measurement": "Activity against native SARS-CoV-2 replication (in words)", "setting": "SARS-CoV-2 (WIV04)", "result": "failed to show activity"}, {"measurement": "EC50", "setting": "VSV-G pseudovirus", "result": 17.2, "unit": "µM"}, {"measurement": "selectivity ratio", "setting": "SARS2-S pseudovirus [2]", "result": 14.5}, {"measurement": "EC50", "setting": "SARS2-S pseudovirus [1]", "result": 1.06, "unit": "µM"}, {"measurement": "EC90", "setting": "SARS2-S pseudovirus [1]", "result": 5.26, "unit": "µM"}, {"measurement": "CC50", "setting": "in vitro; Huh7 CC50", "result": 16.8, "unit": "µM"}]}
{"smiles": "OCCN1CCN(CCCN2c3ccccc3Sc3ccc(Cl)cc32)CC1", "note": "[Perphenazine]", "values": [{"measurement": "Activity against native SARS-CoV-2 replication (in words)", "setting": "SARS-CoV-2 (WIV04)", "result": "failed to show activity"}, {"measurement": "EC50", "setting": "VSV-G pseudovirus", "result": "> 20", "unit": "µM"}, {"measurement": "selectivity ratio", "setting": "SARS2-S pseudovirus [2]", "result": 14.7}, {"measurement": "EC50", "setting": "SARS2-S pseudovirus [1]", "result": 2.14, "unit": "µM"}, {"measurement": "EC90", "setting": "SARS2-S pseudovirus [1]", "result": "> 20", "unit": "µM"}]}
{"smiles": "CC(CN1c2ccccc2Sc2ccccc21)N(C)C", "note": "(stereo not drawn) [Promethazine]", "values": [{"measurement": "Activity against native SARS-CoV-2 replication (in words)", "setting": "SARS-CoV-2 (WIV04)", "result": "failed to show activity"}, {"measurement": "EC50", "setting": "VSV-G pseudovirus", "result": "> 20", "unit": "µM"}, {"measurement": "selectivity ratio", "setting": "SARS2-S pseudovirus [2]", "result": "> 20.8"}, {"measurement": "EC50", "setting": "SARS2-S pseudovirus [1]", "result": 0.96, "unit": "µM"}, {"measurement": "EC90", "setting": "SARS2-S pseudovirus [1]", "result": 18.2, "unit": "µM"}]}
{"smiles": "CNCCCC1c2ccccc2C=Cc2ccccc21", "note": "[Protriptyline]", "values": [{"measurement": "EC50", "setting": "VSV-G pseudovirus", "result": "> 20", "unit": "µM"}, {"measurement": "selectivity ratio", "setting": "SARS2-S pseudovirus [2]", "result": "> 13.5"}, {"measurement": "EC50", "setting": "SARS2-S pseudovirus [1]", "result": 1.68, "unit": "µM"}, {"measurement": "EC90", "setting": "SARS2-S pseudovirus [1]", "result": 7.21, "unit": "µM"}, {"measurement": "CC50", "setting": "in vitro; Huh7 CC50", "result": "> 20", "unit": "µM"}]}
{"smiles": "O=C(O[C@H]1CN2CCC1CC2)N1CCc2ccccc2[C@@H]1c1ccccc1", "note": "[Solifenacin]", "values": [{"measurement": "EC50", "setting": "VSV-G pseudovirus", "result": "> 20", "unit": "µM"}, {"measurement": "selectivity ratio", "setting": "SARS2-S pseudovirus [2]", "result": "> 9.66"}, {"measurement": "EC50", "setting": "SARS2-S pseudovirus [1]", "result": 2.03, "unit": "µM"}, {"measurement": "EC90", "setting": "SARS2-S pseudovirus [1]", "result": 8.98, "unit": "µM"}]}
{"smiles": "CN(C)CCOc1ccc(/C(=C(/CCCl)c2ccccc2)c2ccccc2)cc1", "note": "[Toremifene]", "values": [{"measurement": "Activity against native SARS-CoV-2 replication (in words)", "setting": "SARS-CoV-2 (WIV04)", "result": "significantly inhibited SARS2 replication"}, {"measurement": "EC50", "setting": "VSV-G pseudovirus", "result": 17.7, "unit": "µM"}, {"measurement": "selectivity ratio", "setting": "SARS2-S pseudovirus [2]", "result": 8.92}, {"measurement": "EC50", "setting": "SARS2-S pseudovirus [1]", "result": 1.92, "unit": "µM"}, {"measurement": "EC90", "setting": "SARS2-S pseudovirus [1]", "result": 13, "unit": "µM"}, {"measurement": "CC50", "setting": "in vitro; [4]", "result": "> 20", "unit": "µM"}, {"measurement": "EC50", "setting": "SARS-CoV S pseudovirus", "result": "2.28 ± 1.09", "unit": "µM"}, {"measurement": "EC90", "setting": "SARS-CoV S pseudovirus", "result": "> 20", "unit": "µM"}]}
{"smiles": "CC(CN(C)C)CN1c2ccccc2Sc2ccccc21", "note": "(stereo not drawn) [Trimeprazine]", "values": [{"measurement": "Activity against native SARS-CoV-2 replication (in words)", "setting": "SARS-CoV-2 (WIV04)", "result": "significantly inhibited SARS2 replication"}, {"measurement": "EC50", "setting": "VSV-G pseudovirus", "result": 5.87, "unit": "µM"}, {"measurement": "selectivity ratio", "setting": "SARS2-S pseudovirus [2]", "result": 14.2}, {"measurement": "EC50", "setting": "SARS2-S pseudovirus [1]", "result": 0.97, "unit": "µM"}, {"measurement": "EC90", "setting": "SARS2-S pseudovirus [1]", "result": 3.77, "unit": "µM"}, {"measurement": "CC50", "setting": "in vitro; [4]", "result": "16.7 ± 1.89", "unit": "µM"}, {"measurement": "EC50", "setting": "SARS-CoV S pseudovirus", "result": "0.66 ± 0.45", "unit": "µM"}, {"measurement": "EC90", "setting": "SARS-CoV S pseudovirus", "result": "4.3 ± 0.48", "unit": "µM"}]}
{"smiles": "CN(C)CCCN1c2ccccc2Sc2ccc(Cl)cc21", "note": "[chlorpromazine]", "values": [{"measurement": "Activity in SARS2-S pseudovirus screening (in words)", "setting": "SARS2-S pseudovirus [3]", "result": "limited toxicity/activity window"}]}
{"smiles": "Cc1ccc(NC(=O)c2ccc(CN3CCN(C)CC3)cc2)cc1Nc1nccc(-c2cccnc2)n1", "note": "[imatinib]", "values": [{"measurement": "Activity in SARS2-S pseudovirus screening (in words)", "setting": "SARS2-S pseudovirus [3]", "result": "weak activity"}]}
{"smiles": "CCC(CC)COC(=O)[C@H](C)N[P@](=O)(OC[C@H]1O[C@@](C#N)(c2ccc3c(N)ncnn23)[C@H](O)[C@@H]1O)Oc1ccccc1", "note": "[remdesivir]", "values": [{"measurement": "Improvement of oxygen support", "setting": "COVID-19", "result": 68, "unit": "%"}]}
